{
  "source": "paper PMC10382584",
  "about": "“Macrocyclization of linear molecules by deep learning to facilitate macrocyclic drug candidates discovery” (Nature Communications, 2023);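 further: KINOMEscan kinase panel binding assay, signal normalized between DMSO as 100% and a positive control compound as 0%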",
  "assay_in_all_cases": "biochemical",
  "set-up_in_all_cases": "DiscoveRx KINOMEscan competition binding, percent of DMSO control signal at 100 nM",
  "settings_in_all_cases": "read-out: Fig. 4a / Percent Control / Compound 1; percent of DMSO control, competition binding",
  "key": {"[1]": {"molecular_target": "NEK11 (Homo sapiens, UniProt Q8NG66)", "description": "(§1) The kinase selectivity profile was performed by using the DiscoveRx KINOMEscan platform. […] Test compounds were prepared as 40× stocks in 100% DMSO and directly diluted into the assay. The results were defined as a percentage of signal between the negative (DMSO, 100% control) and the positive (control compound, 0% control) control, which was calculated as follows: percent control = [(test compound signal − positive control signal)/(negative control signal − positive control signal)] × 100."}, "[2]": {"molecular_target": "NEK7 (Homo sapiens, UniProt Q8TDX7)", "sequence (Q8TDX7 whole entry)": "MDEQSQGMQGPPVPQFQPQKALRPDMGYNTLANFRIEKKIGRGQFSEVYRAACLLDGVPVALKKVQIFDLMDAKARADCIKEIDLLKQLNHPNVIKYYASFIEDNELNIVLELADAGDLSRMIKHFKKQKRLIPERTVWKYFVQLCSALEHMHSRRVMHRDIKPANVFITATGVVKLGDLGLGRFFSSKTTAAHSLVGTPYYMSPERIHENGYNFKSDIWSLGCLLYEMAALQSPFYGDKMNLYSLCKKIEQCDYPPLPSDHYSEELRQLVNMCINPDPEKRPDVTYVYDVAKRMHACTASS", "description": "as §1"}, "[3]": {"molecular_target": "ACVR2A (Homo sapiens, UniProt P27037)", "description": "as §1"}, "[4]": {"molecular_target": "PIK3CD (Homo sapiens, UniProt O00329)", "description": "as §1"}, "[5]": {"molecular_target": "T1, LZK (Homo sapiens, UniProt O43283)", "T1 construct": "gene MAP3K13", "T1 sequence (O43283 whole entry)": "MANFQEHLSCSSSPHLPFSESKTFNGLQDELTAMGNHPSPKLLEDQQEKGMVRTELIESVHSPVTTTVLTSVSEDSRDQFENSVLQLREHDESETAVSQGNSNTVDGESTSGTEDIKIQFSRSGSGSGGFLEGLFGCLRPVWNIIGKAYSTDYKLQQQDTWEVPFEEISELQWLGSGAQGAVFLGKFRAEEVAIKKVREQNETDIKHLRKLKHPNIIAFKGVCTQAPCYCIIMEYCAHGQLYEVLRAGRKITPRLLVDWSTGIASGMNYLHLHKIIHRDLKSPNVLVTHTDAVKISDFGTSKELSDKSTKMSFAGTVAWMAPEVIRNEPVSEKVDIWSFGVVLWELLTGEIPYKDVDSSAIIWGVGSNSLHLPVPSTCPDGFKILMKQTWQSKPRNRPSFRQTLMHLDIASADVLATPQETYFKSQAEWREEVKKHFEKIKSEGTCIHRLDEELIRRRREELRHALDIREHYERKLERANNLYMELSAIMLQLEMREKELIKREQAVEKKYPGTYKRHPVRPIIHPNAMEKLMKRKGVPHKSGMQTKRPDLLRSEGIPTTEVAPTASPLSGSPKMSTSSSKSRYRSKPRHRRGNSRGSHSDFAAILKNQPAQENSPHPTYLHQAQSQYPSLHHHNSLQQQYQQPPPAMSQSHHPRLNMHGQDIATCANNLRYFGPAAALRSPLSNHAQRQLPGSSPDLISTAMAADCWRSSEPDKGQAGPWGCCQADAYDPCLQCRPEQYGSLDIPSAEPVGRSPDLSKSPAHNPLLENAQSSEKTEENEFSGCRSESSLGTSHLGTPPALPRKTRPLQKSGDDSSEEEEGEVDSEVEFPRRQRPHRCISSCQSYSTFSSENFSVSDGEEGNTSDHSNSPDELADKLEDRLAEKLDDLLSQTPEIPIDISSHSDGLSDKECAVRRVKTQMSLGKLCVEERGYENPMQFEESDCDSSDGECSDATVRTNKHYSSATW", "description": "as §1"}, "[6]": {"molecular_target": "T2, RSK1(Kin.Dom.1-N-terminal) (Homo sapiens, UniProt Q15418)", "T2 construct": "gene RPS6KA1; Kin.Dom.1-N-terminal", "description": "as §1"}, "[7]": {"molecular_target": "WNK4 (Homo sapiens, UniProt Q96J92)", "description": "as §1"}, "[8]": {"molecular_target": "CLK3 (Homo sapiens, UniProt P49761)", "description": "as §1"}, "[9]": {"molecular_target": "RIOK2 (Homo sapiens, UniProt Q9BVS4)", "description": "as §1"}, "[10]": {"molecular_target": "TEC (Homo sapiens, UniProt P42680)", "description": "as §1"}, "[11]": {"molecular_target": "CLK2 (Homo sapiens, UniProt P49760)", "description": "as §1"}, "[12]": {"molecular_target": "EGFR(E746-A750del) (Homo sapiens, UniProt P00533, DEL746-750)", "description": "as §1"}, "[13]": {"molecular_target": "FRK (Homo sapiens, UniProt P42685)", "sequence (P42685 whole entry)": "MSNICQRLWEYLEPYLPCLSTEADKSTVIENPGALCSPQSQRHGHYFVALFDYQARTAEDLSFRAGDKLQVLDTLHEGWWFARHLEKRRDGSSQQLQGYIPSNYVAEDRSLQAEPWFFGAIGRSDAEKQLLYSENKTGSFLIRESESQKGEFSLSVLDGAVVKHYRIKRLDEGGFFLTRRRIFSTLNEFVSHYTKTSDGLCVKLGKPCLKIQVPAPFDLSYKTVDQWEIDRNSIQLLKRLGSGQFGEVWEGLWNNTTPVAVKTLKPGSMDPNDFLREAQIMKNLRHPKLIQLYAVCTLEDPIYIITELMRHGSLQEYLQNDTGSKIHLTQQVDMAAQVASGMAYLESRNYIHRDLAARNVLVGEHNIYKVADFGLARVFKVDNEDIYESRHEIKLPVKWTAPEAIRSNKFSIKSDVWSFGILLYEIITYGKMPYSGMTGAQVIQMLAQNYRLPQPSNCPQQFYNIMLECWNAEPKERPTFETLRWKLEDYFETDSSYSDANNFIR", "description": "as §1"}, "[14]": {"molecular_target": "SRPK3 (Homo sapiens, UniProt Q9UPE1)", "description": "as §1"}, "[15]": {"molecular_target": "ALK (Homo sapiens, UniProt Q9UM73)", "description": "as §1"}, "[16]": {"molecular_target": "GRK2 (Homo sapiens, UniProt P25098)", "description": "as §1"}, "[17]": {"molecular_target": "T3, RSK4(Kin.Dom.1-N-terminal) (Homo sapiens, UniProt Q9UK32)", "T3 construct": "gene RPS6KA6; Kin.Dom.1-N-terminal", "T3 sequence (Q9UK32 whole entry)": "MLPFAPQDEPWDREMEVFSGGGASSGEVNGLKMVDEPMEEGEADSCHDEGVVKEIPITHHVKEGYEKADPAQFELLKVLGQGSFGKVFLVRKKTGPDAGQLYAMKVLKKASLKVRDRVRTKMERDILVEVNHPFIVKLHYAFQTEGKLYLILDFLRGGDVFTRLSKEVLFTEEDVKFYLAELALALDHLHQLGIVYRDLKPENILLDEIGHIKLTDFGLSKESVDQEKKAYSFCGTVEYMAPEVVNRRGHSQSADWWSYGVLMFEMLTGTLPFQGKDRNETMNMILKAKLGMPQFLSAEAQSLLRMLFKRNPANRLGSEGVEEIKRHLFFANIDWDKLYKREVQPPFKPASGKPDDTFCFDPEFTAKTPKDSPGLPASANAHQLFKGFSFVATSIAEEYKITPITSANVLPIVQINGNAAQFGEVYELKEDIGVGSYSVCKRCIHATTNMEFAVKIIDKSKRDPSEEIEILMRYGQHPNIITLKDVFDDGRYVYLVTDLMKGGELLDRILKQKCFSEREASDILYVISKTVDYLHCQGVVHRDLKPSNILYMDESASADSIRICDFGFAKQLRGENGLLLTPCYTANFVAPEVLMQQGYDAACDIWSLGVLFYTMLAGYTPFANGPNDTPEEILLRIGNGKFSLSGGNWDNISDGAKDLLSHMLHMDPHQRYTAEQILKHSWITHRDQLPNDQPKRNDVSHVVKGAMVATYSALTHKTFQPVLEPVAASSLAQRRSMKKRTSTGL", "description": "as §1"}, "[18]": {"molecular_target": "T4, MST1 (Homo sapiens, UniProt Q13043)", "T4 construct": "gene STK4", "T4 sequence (Q13043 whole entry)": "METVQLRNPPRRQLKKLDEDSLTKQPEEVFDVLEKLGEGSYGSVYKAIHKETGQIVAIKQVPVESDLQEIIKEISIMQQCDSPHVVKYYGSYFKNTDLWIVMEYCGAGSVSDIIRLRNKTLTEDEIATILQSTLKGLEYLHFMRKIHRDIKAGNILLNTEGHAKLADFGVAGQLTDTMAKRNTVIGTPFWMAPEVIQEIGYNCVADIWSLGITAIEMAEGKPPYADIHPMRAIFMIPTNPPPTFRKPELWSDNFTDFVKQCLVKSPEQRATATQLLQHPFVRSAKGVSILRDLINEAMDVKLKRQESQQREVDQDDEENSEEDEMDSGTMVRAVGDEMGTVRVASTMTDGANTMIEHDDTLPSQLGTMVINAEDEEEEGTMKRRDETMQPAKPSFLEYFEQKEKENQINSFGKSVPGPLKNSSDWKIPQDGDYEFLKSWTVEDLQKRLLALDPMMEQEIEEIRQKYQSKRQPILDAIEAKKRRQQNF", "description": "as §1"}, "[19]": {"molecular_target": "MYO3B (Homo sapiens, UniProt Q8WXR4)", "description": "as §1"}, "[20]": {"molecular_target": "PIK3CG (Homo sapiens, UniProt P48736)", "description": "as §1"}, "[21]": {"molecular_target": "CSK (Homo sapiens, UniProt P41240)", "description": "as §1"}, "[22]": {"molecular_target": "CLK1 (Homo sapiens, UniProt P49759)", "sequence (P49759 whole entry)": "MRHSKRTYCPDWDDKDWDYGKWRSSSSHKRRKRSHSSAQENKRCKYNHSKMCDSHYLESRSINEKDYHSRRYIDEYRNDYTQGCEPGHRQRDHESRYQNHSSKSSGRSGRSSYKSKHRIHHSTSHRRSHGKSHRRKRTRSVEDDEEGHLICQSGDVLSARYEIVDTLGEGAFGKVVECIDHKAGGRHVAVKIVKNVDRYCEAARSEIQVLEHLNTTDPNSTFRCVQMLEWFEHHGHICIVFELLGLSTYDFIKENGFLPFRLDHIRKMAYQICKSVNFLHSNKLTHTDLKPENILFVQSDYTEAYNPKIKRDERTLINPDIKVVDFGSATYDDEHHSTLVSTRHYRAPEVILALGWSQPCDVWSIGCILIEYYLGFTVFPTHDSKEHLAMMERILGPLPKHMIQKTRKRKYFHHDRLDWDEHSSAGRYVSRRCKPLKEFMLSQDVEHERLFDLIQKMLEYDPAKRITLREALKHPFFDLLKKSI", "description": "as §1"}, "[23]": {"molecular_target": "MYLK2 (Homo sapiens, UniProt Q9H1R3)", "description": "as §1"}, "[24]": {"molecular_target": "WNK1 (Homo sapiens, UniProt Q9H4A3)", "description": "as §1"}, "[25]": {"molecular_target": "T5, YSK4 (Homo sapiens, UniProt Q56UN5)", "T5 construct": "gene MAP3K19", "T5 sequence (Q56UN5 whole entry)": "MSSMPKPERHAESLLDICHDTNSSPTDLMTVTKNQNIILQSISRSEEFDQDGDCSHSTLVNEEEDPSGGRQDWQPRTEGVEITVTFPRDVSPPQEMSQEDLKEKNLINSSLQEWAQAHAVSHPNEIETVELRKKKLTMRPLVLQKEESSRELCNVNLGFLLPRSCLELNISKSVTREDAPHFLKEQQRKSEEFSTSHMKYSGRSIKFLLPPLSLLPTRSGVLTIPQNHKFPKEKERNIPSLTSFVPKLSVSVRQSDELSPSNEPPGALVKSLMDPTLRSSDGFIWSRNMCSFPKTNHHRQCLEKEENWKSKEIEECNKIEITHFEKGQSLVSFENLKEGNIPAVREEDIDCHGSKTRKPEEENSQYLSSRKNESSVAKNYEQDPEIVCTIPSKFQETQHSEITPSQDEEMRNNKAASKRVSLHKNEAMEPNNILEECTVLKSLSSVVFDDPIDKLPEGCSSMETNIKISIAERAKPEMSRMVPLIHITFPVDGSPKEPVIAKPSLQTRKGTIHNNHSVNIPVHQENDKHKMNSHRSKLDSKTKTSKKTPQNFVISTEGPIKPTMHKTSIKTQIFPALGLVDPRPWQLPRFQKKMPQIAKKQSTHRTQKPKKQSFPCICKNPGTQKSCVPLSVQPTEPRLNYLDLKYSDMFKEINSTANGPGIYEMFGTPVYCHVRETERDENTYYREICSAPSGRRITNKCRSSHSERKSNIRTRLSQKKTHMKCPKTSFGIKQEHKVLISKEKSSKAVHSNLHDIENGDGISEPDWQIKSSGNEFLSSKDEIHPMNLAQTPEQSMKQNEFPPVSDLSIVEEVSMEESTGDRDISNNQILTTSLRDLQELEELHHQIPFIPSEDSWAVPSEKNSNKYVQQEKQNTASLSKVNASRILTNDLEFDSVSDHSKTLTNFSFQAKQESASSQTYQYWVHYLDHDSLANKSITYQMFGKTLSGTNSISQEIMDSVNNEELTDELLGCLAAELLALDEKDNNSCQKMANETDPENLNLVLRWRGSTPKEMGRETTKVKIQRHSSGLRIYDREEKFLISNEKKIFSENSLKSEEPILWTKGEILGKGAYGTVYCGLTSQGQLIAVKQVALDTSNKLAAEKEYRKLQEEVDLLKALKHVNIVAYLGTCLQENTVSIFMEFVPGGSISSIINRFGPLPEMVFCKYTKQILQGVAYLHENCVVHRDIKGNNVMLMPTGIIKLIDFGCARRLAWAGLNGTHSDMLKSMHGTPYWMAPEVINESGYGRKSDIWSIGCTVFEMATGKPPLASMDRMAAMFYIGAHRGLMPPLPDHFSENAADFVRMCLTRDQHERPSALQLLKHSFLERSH", "description": "as §1"}},
  "data": [
    {"smiles": "Cc1cnc2nc1Nc1cccc(c1)COCc1cc(ccc1OCCN1CCCC1)N2", "note": "[Compound 1]", "values": [
      {"measurement": "remaining binding at 0.1 µM", "setting": "[1]", "result": 69, "unit": "%"},
      {"measurement": "remaining binding at 0.1 µM", "setting": "[2]", "result": 72, "unit": "%"},
      {"measurement": "remaining binding at 0.1 µM", "setting": "[3]", "result": 99, "unit": "%"},
      {"measurement": "remaining binding at 0.1 µM", "setting": "[4]", "result": 89, "unit": "%"},
      {"measurement": "remaining binding at 0.1 µM", "setting": "[5]", "result": 63, "unit": "%"},
      {"measurement": "remaining binding at 0.1 µM", "setting": "[6]", "result": 97, "unit": "%"},
      {"measurement": "remaining binding at 0.1 µM", "setting": "[7]", "result": 48, "unit": "%"},
      {"measurement": "remaining binding at 0.1 µM", "setting": "[8]", "result": 100, "unit": "%"},
      {"measurement": "remaining binding at 0.1 µM", "setting": "[9]", "result": 84, "unit": "%"},
      {"measurement": "remaining binding at 0.1 µM", "setting": "[10]", "result": 94, "unit": "%"},
      {"measurement": "remaining binding at 0.1 µM", "setting": "[11]", "result": 81, "unit": "%"},
      {"measurement": "remaining binding at 0.1 µM", "setting": "[12]", "result": 89, "unit": "%"},
      {"measurement": "remaining binding at 0.1 µM", "setting": "[13]", "result": 84, "unit": "%"},
      {"measurement": "remaining binding at 0.1 µM", "setting": "[14]", "result": 82, "unit": "%"},
      {"measurement": "remaining binding at 0.1 µM", "setting": "[15]", "result": 79, "unit": "%"},
      {"measurement": "remaining binding at 0.1 µM", "setting": "[16]", "result": 90, "unit": "%"},
      {"measurement": "remaining binding at 0.1 µM", "setting": "[17]", "result": 64, "unit": "%"},
      {"measurement": "remaining binding at 0.1 µM", "setting": "[18]", "result": 100, "unit": "%"},
      {"measurement": "remaining binding at 0.1 µM", "setting": "[19]", "result": 99, "unit": "%"},
      {"measurement": "remaining binding at 0.1 µM", "setting": "[20]", "result": 69, "unit": "%"},
      {"measurement": "remaining binding at 0.1 µM", "setting": "[21]", "result": 100, "unit": "%"},
      {"measurement": "remaining binding at 0.1 µM", "setting": "[22]", "result": 95, "unit": "%"},
      {"measurement": "remaining binding at 0.1 µM", "setting": "[23]", "result": 100, "unit": "%"},
      {"measurement": "remaining binding at 0.1 µM", "setting": "[24]", "result": 90, "unit": "%"},
      {"measurement": "remaining binding at 0.1 µM", "setting": "[25]", "result": 11, "unit": "%"}
    ]}
  ]
}
